Test results from ChEMBL document CHEMBL1129173, “New class of potent ligands for the human peripheral cannabinoid receptor” (Bioorg Med Chem Lett, 1996).

Columns and labels:
[1] = target: Cannabinoid receptor 1 (Homo sapiens, UniProt P21554); assay: Evaluated for binding affinity against recombinant human central cannabinoid receptor 1
[2] = target: Cannabinoid receptor 2 (Homo sapiens, UniProt P34972); assay: Evaluated for binding affinity against recombinant human peripheral cannabinoid receptor 2
Sequence of Cannabinoid receptor 2 (P34972 whole entry): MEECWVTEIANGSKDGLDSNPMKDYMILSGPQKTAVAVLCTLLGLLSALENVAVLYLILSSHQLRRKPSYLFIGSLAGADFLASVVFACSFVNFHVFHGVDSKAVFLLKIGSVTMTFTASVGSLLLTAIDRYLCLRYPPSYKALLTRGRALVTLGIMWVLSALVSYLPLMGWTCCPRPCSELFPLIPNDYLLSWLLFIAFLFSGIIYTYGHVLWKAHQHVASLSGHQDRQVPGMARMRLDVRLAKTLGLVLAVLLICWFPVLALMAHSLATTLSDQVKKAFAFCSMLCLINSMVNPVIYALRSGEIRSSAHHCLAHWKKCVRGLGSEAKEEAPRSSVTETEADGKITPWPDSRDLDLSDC

Sequence of Cannabinoid receptor 1 (P21554 whole entry): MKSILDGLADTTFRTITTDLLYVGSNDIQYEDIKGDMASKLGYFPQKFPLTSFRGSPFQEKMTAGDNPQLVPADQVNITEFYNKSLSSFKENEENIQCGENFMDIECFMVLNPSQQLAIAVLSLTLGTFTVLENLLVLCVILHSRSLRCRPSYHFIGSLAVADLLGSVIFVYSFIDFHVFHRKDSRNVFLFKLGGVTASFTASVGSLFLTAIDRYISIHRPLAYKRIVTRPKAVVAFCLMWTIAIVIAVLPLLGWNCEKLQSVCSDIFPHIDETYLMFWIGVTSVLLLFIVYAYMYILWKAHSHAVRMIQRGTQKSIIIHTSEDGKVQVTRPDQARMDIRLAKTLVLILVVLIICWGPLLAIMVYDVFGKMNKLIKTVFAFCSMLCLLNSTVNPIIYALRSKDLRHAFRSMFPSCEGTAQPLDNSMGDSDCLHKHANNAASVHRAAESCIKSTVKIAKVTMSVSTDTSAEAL

Cc1c(C(=O)c2cccc3ccccc23)c2ccccc2n1CCN1CCOCC1
Ki [1]: 0.638 µM
Ki [2]: 0.014 µM

COC(=O)Cc1c(C)n(C(=O)c2ccccc2Cl)c2ccc(OC)cc12
Ki [1]: 1.72 µM
Ki [2]: 0.397 µM

Cc1c(CCN2CCOCC2)c2ccccc2n1C(=O)c1cccc2ccccc12
Ki [1]: 2.18 µM
Ki [2]: 0.216 µM

COc1ccc2c(c1)c(CC(=O)N1CCOCC1)c(C)n2C(=O)c1ccc(F)cc1Cl
Ki [1]: 5.57 µM
Ki [2]: 0.134 µM

COc1ccc2c(c1)c(CN1CCOCC1)c(C)n2C(=O)c1cccc(Cl)c1Cl
Ki [1]: 3.36 µM
Ki [2]: 0.022 µM

COc1ccc2c(c1)c(CC(=O)N1CCOCC1)c(C)n2Cc1cccc(Cl)c1Cl
Ki [1]: > 20 µM
Ki [2]: 1.05 µM

Cc1c(CN2CCOCC2)c2ccccc2n1-c1cccc2ccccc12
Ki [1]: 6.68 µM
Ki [2]: 7.84 µM

COc1ccc2c(c1)c(CC(=O)N1CCOCC1)c(C)n2C(=O)c1c(Cl)cccc1Cl
Ki [1]: 2.55 µM
Ki [2]: 0.059 µM

COC(=O)Cc1c(C)n(C(=O)c2cccc3ccccc23)c2ccc(OC)cc12
Ki [1]: 4.61 µM
Ki [2]: 0.142 µM

COc1ccc2c(c1)c(CC(=O)N1CCOCC1)c(C)n2C(=O)c1cccc(Cl)c1Cl
Ki [1]: 2.04 µM
Ki [2]: 0.014 µM

COc1ccc2c(c1)c(CCN1CCOCC1)c(C)n2C(=O)c1ccc(Cl)cc1
Ki [1]: 10.3 µM
Ki [2]: 0.213 µM

Cc1c(CN2CCOCC2)c2ccccc2n1C(=O)c1cccc2ccccc12
Ki [1]: 0.877 µM
Ki [2]: 0.0085 µM

COC(=O)Cc1c(C)n(C(=O)c2ccc(Cl)cc2)c2ccc(OC)cc12
Ki [1]: > 20 µM
Ki [2]: 4.02 µM

COc1ccc2c(c1)c(CCN1CCOCC1)c(C)n2C(=O)c1cccc(Cl)c1Cl
Ki [1]: 1.92 µM
Ki [2]: 0.012 µM

Cc1c(CCN2CCOCC2)c2ccccc2n1C(=O)c1cccc(Cl)c1Cl
Ki [1]: 3.19 µM
Ki [2]: 0.027 µM

COc1ccc2c(c1)c(CC(=O)N1CCOCC1)c(C)n2C(=O)c1cccc(Cl)c1
Ki [1]: 16.8 µM
Ki [2]: 0.354 µM

COc1ccc2c(c1)c(CC(=O)N1CCOCC1)c(C)n2C(=O)c1ccccc1Cl
Ki [1]: 3.6 µM
Ki [2]: 0.069 µM

COc1ccc2c(c1)c(CC(=O)N1CCOCC1)c(C)n2C(=O)c1ccc(Cl)cc1 [INDOMETHACIN MORPHOLINYLAMIDE]
Ki [1]: > 20 µM
Ki [2]: 0.435 µM

COc1ccc2c(c1)c(CC(=O)O)c(C)n2C(=O)c1ccc(Cl)cc1 [INDOMETHACIN]
Ki [2]: > 20 µM
